# From the supplement of paper PMC6045584
# Assays:
# Assay in all cases: area under dose-response curve of surviving fraction (unscaled, Aref=0) (surviving fraction x log10(nM)); higher = more resistant
# Settings in all cases: exposure time: 5 days; dose range 0.5-1000 nM
# [1] = compound: C[C@@H]1CN(CC(=O)Nc2ccc3c(c2)Cc2cccc(-c4cc(=O)cc(N5CCOCC5)o4)c2S3)C[C@H](C)O1
# How it was run: (§1)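 Tumour cell lines in 384-well plates were exposed for five days to eight inhibitor concentrations from 0.5 to 1000 nM. Viability was read by CellTiter-Glo luminescence, normalised to DMSO-only wells, in three screens per line. Dose-response survival curves were fitted to surviving fractions by 3-parameter logistic regression in the drc R package. Area under the curve is the unscaled activity area (Aref = 0) over log10 dose.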
# [2] = compound: COc1cc2nccc(Oc3ccc(NC(=O)C4(C(=O)Nc5ccc(F)cc5)CC4)cc3)c2cc1OC [CABOZANTINIB]
# How it was run: as §1
# [3] = compound: Cc1cn(-c2cc(NC(=O)c3ccc(C)c(Nc4nccc(-c5cccnc5)n4)c3)cc(C(F)(F)F)c2)cn1 [NILOTINIB]
# How it was run: as §1
# [4] = compound: C[C@H](CN(C)C)Oc1nc(Nc2cc3cccc(Cl)c3cn2)cnc1C#N
# How it was run: as §1
# [5] = compound: Cn1c(=O)n(-c2ccc(C(C)(C)C#N)cc2)c2c3cc(-c4cnc5ccccc5c4)ccc3ncc21 [BEZ-235]
# How it was run: as §1
# [6] = compound: CCc1cc(Nc2nccc(-c3c(-c4ccc(OC)c(C(=O)Nc5c(F)cccc5F)c4)nc4ccccn34)n2)c(OC)cc1N1CCC(N2CCN(S(C)(=O)=O)CC2)CC1
# How it was run: as §1
# [7] = compound: C=CCn1c(=O)c2cnc(Nc3ccc(N4CCN(C)CC4)cc3)nc2n1-c1cccc(C(C)(C)O)n1 [MK-1775]
# How it was run: as §1
# [8] = compound: CC/C(=C(\c1ccc(O)cc1)c1ccc(OCCN(C)C)cc1)c1ccccc1 [AFIMOXIFENE]
# How it was run: as §1
# [9] = compound: Cn1ncnc1[C@H]1c2n[nH]c(=O)c3cc(F)cc(c23)N[C@@H]1c1ccc(F)cc1 [BMN-673]
# How it was run: as §1
# [10] = compound: COc1cc2nccc(Oc3ccc(NC(=O)NC4CC4)c(Cl)c3)c2cc1C(N)=O [LENVATINIB]
# How it was run: as §1
# [11] = compound: Cc1c(N)nc([C@H](CC(N)=O)NC[C@H](N)C(N)=O)nc1C(=O)N[C@H](C(=O)N[C@H](C)[C@@H](O)[C@H](C)C(=O)N[C@H](C(=O)NCCc1nc(-c2nc(C(=O)NCCC[S+](C)C)cs2)cs1)[C@@H](C)O)[C@@H](OC1OC(CO)C(O)C(O)C1OC1OC(CO)C(O)C(OC(N)=O)C1O)c1cnc[nH]1 [BLEOMYCIN]
# How it was run: as §1
# [12] = compound: O=C(CCCCCCC(=O)Nc1ccccc1)NO [VORINOSTAT]
# How it was run: as §1
# [13] = compound: COc1ccc(-c2cc3c(C)nc(N)nc3n([C@H]3CC[C@H](OCCO)CC3)c2=O)cn1
# How it was run: as §1
# [14] = compound: Cc1ccc(NC(=O)c2ccc(CN3CCN(C)CC3)cc2)cc1Nc1nccc(-c2cccnc2)n1 [IMATINIB]
# How it was run: as §1
test system,measurement,setting,value
HSSYII SYNOVIAL,area under dose-response curve,[1],3
same,area under dose-response curve,[2],2.98
same,area under dose-response curve,[3],3.09
same,area under dose-response curve,[4],2.56
same,area under dose-response curve,[5],2.12
same,area under dose-response curve,[6],3.08
same,area under dose-response curve,[7],2.05
same,area under dose-response curve,[8],3.31
same,area under dose-response curve,[9],1.15
same,area under dose-response curve,[10],2.64
same,area under dose-response curve,[11],2.09
same,area under dose-response curve,[12],2.82
same,area under dose-response curve,[13],1.93
same,area under dose-response curve,[14],3.24
